The values below come from US10562900B2 (Shanghai Haihe Pharmaceutical Co., Ltd., priority 2014, dated 2020).

Molecules are shown by their SMILES.

For one test, the target named is FGFR2 (Homo sapiens (Human), UniProt P21802). Kind of test: FGFR2 kinase activity at the molecular level (ELISA, Poly(Glu,Tyr) 4:1 substrate). Format: biochemical. As to conditions: kinase domain recombinant protein, 5 μM ATP. As to the method:
(§1) 100 μL/well of 2 mg/mL OPD developing solution (diluted with 0.1M citric acid-sodium citrate buffer containing 0.03% H2O2 (pH=5.4)), and reacted in dark for 1-10 minutes at 25° C.
On the technique in general: ELISA stands for enzyme-linked immunosorbent assay.

Another test has as its target FGFR1 (Homo sapiens (Human), UniProt P11362). In words: FGFR1 kinase activity at the molecular level (ELISA, Poly(Glu,Tyr) 4:1 substrate). In kind it is biochemical. The note with it: kinase domain recombinant protein, 5 μM ATP. As to the method:
as §1

Sequence of FGFR2 (P21802 481-770): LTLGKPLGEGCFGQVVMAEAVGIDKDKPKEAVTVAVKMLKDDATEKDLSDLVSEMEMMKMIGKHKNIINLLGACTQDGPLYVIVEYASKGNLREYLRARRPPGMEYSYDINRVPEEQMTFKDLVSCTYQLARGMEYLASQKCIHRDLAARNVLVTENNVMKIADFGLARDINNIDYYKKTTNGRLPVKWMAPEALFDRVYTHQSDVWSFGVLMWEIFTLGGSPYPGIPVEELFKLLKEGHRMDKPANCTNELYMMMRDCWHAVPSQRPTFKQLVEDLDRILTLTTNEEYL
Sequence of FGFR1 (P11362 478-767): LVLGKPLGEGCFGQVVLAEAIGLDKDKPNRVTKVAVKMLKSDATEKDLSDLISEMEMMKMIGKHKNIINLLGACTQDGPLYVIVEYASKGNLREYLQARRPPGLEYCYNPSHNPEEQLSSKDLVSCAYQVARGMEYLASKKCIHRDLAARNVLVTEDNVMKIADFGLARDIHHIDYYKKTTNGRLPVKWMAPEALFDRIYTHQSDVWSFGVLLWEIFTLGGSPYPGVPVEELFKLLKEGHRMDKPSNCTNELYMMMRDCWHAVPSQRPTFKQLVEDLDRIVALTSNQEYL

What is called IC50 is the concentration that gives 50% inhibition. Turning to `COc1cc(OC)c(Cl)c(-c2ccc3c(NC(=O)c4ccc(N5C[C@@H](C)N[C@@H](C)C5)cn4)n[nH]c3c2)c1Cl` [Example 21, N-(6-(2,6-dichloro-3,5-dimethoxyphenyl)-1H-indazole-3-yl)-5-((3R,5S)-3,5-dimethyl-1-yl)pyridine amide], the IC50 at FGFR2 and on FGFR1 was less than 100 nM throughout.

`COc1cc(OC)c(F)c(-c2ccc3c(NC(=O)c4ccc(N5CCCN(C)CC5)cc4)n[nH]c3c2)c1F` [Example 95, N-(6-(2,6-difluoro-3,5-dimethoxyphenyl)-1H-indazole-3-yl)-4-(4-methyl-1,4-diazepane-1-yl)benzamide]: the IC50 on FGFR2 and at FGFR1 was less than 100 nM in each case.

In the case of `COc1cc(OC)c(Cl)c(-c2ccc3c(NC(=O)c4cnc(N5CCN(C)CC5)nc4)n[nH]c3n2)c1Cl` [Example 92, N-(6-(2,6-dichloro-3,5-dimethoxyphenyl)-1H-pyrazolo [3,4-b]pyridin-3-yl)-2-(4-methylpiperazine-1-yl)pyrimidine-5-formamide], the half-inhibitory concentration (IC50) on FGFR2 and at FGFR1 was less than 100 nM throughout.

`COc1cc(OC)c(Cl)c(-c2ccc3c(NC(=O)c4ccc(N5CCN(C(=O)C(C)(C)C)CC5)cc4)n[nH]c3c2)c1Cl` [Example 30, N-(6-(2,6-dichloro-3,5-dimethoxyphenyl)-1H-indazole-3-yl)-4-(4-pivaloylpiperazine-1-yl)benzamide]: the IC50 on FGFR2 and on FGFR1 was less than 100 nM throughout.

As to `COc1cc(OC)c(Cl)c(-c2ccc3c(NC(=O)c4ccc(N5C[C@@H](C)N[C@@H](C)C5)nc4)n[nH]c3n2)c1Cl` [Example 71], the IC50 at FGFR2 and at FGFR1 was less than 100 nM each time.

For `COc1cc(OC)c(F)c(-c2ccc3c(NC(=O)c4ccc(N5CCCCC5)cc4)n[nH]c3c2)c1F` [Example 93, N-(6-(2,6-difluoro-3,5-dimethoxyphenyl)-1H-indazole-3-yl)-4-(piperidine-1-yl)benzamide], the IC50 at FGFR2 and on FGFR1 was less than 100 nM each time.

For `COc1cc(OC)c(Cl)c(-c2ccc3c(NC(=O)c4ccc(N5CCN(C6CC6)CC5)nc4)n[nH]c3n2)c1Cl` [Example 88, 6-(4-cyclopropylpiperazine-1-yl)-N-(6-(2,6-dichloro-3,5-dimethoxyphenyl)-1H-pyrazolo [3,4-b]pyridin-3-yl)nicotinamide], the IC50 on FGFR2 and on FGFR1 was less than 100 nM in each case.

`COc1cc(OC)c(Cl)c(-c2ccc3c(NC(=O)c4ccc(N5CCOCC5)cc4)n[nH]c3n2)c1Cl` [Example 70, N-(6-(2,6-dichloro-3,5-dimethoxyphenyl)-1H-pyrazolo [3,4-b]pyridin-3-yl)-4-morpholino benzamide]: the half-inhibitory concentration (IC50) at FGFR2 and on FGFR1 was less than 100 nM throughout.

Regarding `CCN1CCN(c2ccc(C(=O)Nc3n[nH]c4cc(-c5c(F)c(OC)cc(OC)c5F)ccc34)cc2)CC1` [Example 47, N-(6-(2,6-difluoro-3,5-dimethoxyphenyl)-1H-indazole-3-yl)-4-(4-ethylpiperazine-1-yl)benzamide], the IC50 on FGFR2 and at FGFR1 was less than 100 nM each time.

For the compound `COc1cc(C(=O)Nc2n[nH]c3nc(-c4c(Cl)c(OC)cc(OC)c4Cl)ccc23)ccc1N1CCNC(C)(C)C1` [Example 101, N-(6-(2,6-dichloro-3,5-dimethoxyphenyl)-1H-pyrazolo [3,4-b]pyridin-3-yl)-4-(3,3-dimethylpiperazine-1-yl)-3-methoxybenzamide], the IC50 at FGFR2 and at FGFR1 was less than 100 nM each time.

Take `COc1cc(OC)c(Cl)c(-c2ccc3c(NC(=O)c4ccc(N5CCN(C)CC5)nc4)n[nH]c3n2)c1Cl` [Example 85, N-(6-(2,6-dichloro-3,5-dimethoxyphenyl)-1H-pyrazolo [3,4-b]pyridin-3-yl)-6-(4-methylpiperazine-1-yl)nicotinamide]: the 50% inhibitory concentration (IC50) at FGFR2 and on FGFR1 was less than 100 nM in each case.

Take `COc1cc(OC)c(Cl)c(-c2ccc3c(NC(=O)c4cccc(N5CCN(C)CC5)c4)n[nH]c3c2)c1Cl` [Example 23, N-(6-(2,6-dichloro-3,5-dimethoxyphenyl)-1H-indazole-3-yl)-3-(4-methyl-1-yl)benzamide]: the IC50 on FGFR2 and on FGFR1 was less than 100 nM throughout.

For `COc1cc(OC)c(Cl)c(-c2ccc3c(NC(=O)c4ccc(N5CCNCC5)cc4)n[nH]c3c2)c1Cl` [Example 25, N-(6-(2,6-dichloro-3,5-dimethoxyphenyl)-1H-indazole-3-yl)-4-(piperazine-1-yl)benzamide], the IC50 on FGFR2 and at FGFR1 was less than 100 nM in each case.

Turning to `COc1cc(OC)c(Cl)c(-c2ccc3c(NC(=O)c4ccc(NC(=O)CN(C)C)cc4)n[nH]c3c2)c1Cl` [Example 28, N-(6-(2,6-dichloro-3,5-dimethoxyphenyl)-1H-indazole-3-yl)-4-(2-(dimethylamino)acetylamino)benzamide], the IC50 on FGFR2 and on FGFR1 was less than 100 nM in each case.

For `CCN1CCN(c2ccc(C(=O)Nc3n[nH]c4nc(-c5c(Cl)c(OC)cc(OC)c5Cl)ccc34)cc2)CC1` [Example 65, N-(6-(2,6-dichloro-3,5-dimethoxyphenyl)-1H-pyrazolo [3,4-b]pyridin-3-yl)-4-(4-ethylpiperazine-1-yl)benzamide], the IC50 on FGFR2 and on FGFR1 was less than 100 nM each time.

`COc1cc(OC)c(Cl)c(-c2ccc3c(NC(=O)c4ccc(CCC(=O)N(C)C)cc4)n[nH]c3c2)c1Cl` [Example 33, N-(6-(2,6-dichloro-3,5-dimethoxyphenyl)-1H-indazole-3-yl)-4-(3-(dimethylamino)-3-oxopropyl)benzamide]: the IC50 on FGFR2 and at FGFR1 was less than 100 nM each time.

For the compound `COc1cc(OC)c(Cl)c(-c2ccc3c(NC(=O)c4ccc(N5CC(C)(C)NC(C)(C)C5)cc4)n[nH]c3n2)c1Cl` [Example 99], the IC50 on FGFR2 and at FGFR1 was less than 100 nM each time.

Take `COc1cc(OC)c(Cl)c(-c2ccc3c(NC(=O)c4ccc(N5CCN(C(C)C)CC5)cc4)n[nH]c3c2)c1Cl` [Example 24, N-(6-(2,6-dichloro-3,5-dimethoxyphenyl)-1H-indazole-3-yl)-4-(4-isopropyl-1-yl)benzamide]: the IC50 on FGFR2 and on FGFR1 was less than 100 nM each time.

Turning to `COc1cc(OC)c(Cl)c(-c2ccc3c(NC(=O)c4ccc(N(C)C)cc4)n[nH]c3c2)c1Cl` [Example 35, N-(6-(2,6-dichloro-3,5-dimethoxyphenyl)-1H-indazole-3-yl)-4-(dimethylamino)benzamide], the IC50 on FGFR2 and at FGFR1 was less than 100 nM in each case.

In the case of `CCN1CCN(c2ccc(C(=O)Nc3n[nH]c4nc(-c5c(Cl)c(OC)cc(OC)c5Cl)ccc34)cn2)CC1` [Example 86, N-(6-(2,6-dichloro-3,5-dimethoxyphenyl)-1H-pyrazolo [3,4-b]pyridin-3-yl)-6-(4-ethylpiperazine-1-yl)nicotinamide], the IC50 on FGFR2 and on FGFR1 was less than 100 nM in each case.

Regarding `COc1cc(OC)c(Cl)c(-c2ccc3c(NC(=O)c4ccc(N5CCNC(C)(C)C5)cc4)n[nH]c3c2)c1Cl` [Example 22, N-(6-(2,6-dichloro-3,5-dimethoxyphenyl)-1H-indazole-3-yl)-4-(3,3-dimethyl-1-yl)benzamide], the IC50 on FGFR2 and on FGFR1 was less than 100 nM in each case.
